Laboratory results taken from ChEMBL document CHEMBL1150631, “New chemical constituents of Euphorbia quinquecostata and absolute configuration assignment by a convenient Mosher ester procedure carried out in NMR tubes” (J Nat Prod, 2002).
In brackets after ≈: the same amount, converted by molar mass.

Test: Inhibition of 12-O-tetradecanoylphorbol 13-acetate-induced transformation of mouse JB6 cells after 14 days by soft agar transformation assay
Assay type: functional, cell-based

IC50: 2.3 µg/mL (≈ 12 µM)
Compound: COc1ccc(/C=C/C=O)cc1OC [3,4-DIMETHOXY CINNAMALDEHYDE]
